The record followed here is article PMC11973503 (2024).

Assay [1] has as its system Poly rA ⋅ Poly rU (RNA, polymer) A/U. Nature of the assay: thermal melting. The conditions noted are these: 100 mM KCl; 10 mM HEPES, 0.4 mM EDTA; 5 μM duplex, ligand 1:10 per base pair; Tm without ligand 58±0.4.
Assay [2] deals with Seq 5 dsDNA (DNA, duplex) GCGCCCGC/GCGGGCGC
Nature of the assay: thermal melting. The conditions noted are these: 100 mM KCl; 10 mM HEPES, 0.4 mM EDTA; 5 μM duplex, ligand 1:10 per base pair; Tm without ligand 54±0.7.

Assay [3] relates to Seq 6 dsDNA (DNA, duplex) CTTCGATAGTG/CACTATCGAAG
Description: thermal melting. To be noted: 100 mM KCl; 10 mM HEPES, 0.4 mM EDTA; 5 μM duplex, ligand 1:10 per base pair; Tm without ligand 45±1.1.

Assay [4] relates to Poly dA ⋅ Poly dT (DNA, polymer) A/T. Nature of the assay: thermal melting. The conditions noted are these: 100 mM KCl; 10 mM HEPES, 0.4 mM EDTA; 5 μM duplex, ligand 1:10 per base pair; Tm without ligand 72±1.0.
Assay [5] deals with HTG DNA (DNA, G4) AGGGTTAGGGTTAGGGTTAGGG
Description: thermal melting. To be noted: 100 mM KCl; 10 mM HEPES, 0.4 mM EDTA; ligand to HTG 2.2:1; Tm without ligand 57±1.9.

In assay [6] the test system is Seq 6 dsDNA (5'-CTTCGATAGTG) (DNA, duplex) CTTCGATAGTG/CACTATCGAAG
Description: fluorescence quantum yield titration. The conditions noted are these: 100 mM KCl; 10 mM HEPES pH 7, 0.4 mM EDTA, 25 °C.

In assay [7] the test system is Seq 5 dsDNA (5'-GCGCCCGC) (DNA, duplex) GCGCCCGC/GCGGGCGC
Description: thermal melting. To be noted: 100 mM KCl; 10 mM HEPES pH not given, 0.4 mM EDTA; 5 µM duplex; ligand 1:10 per base pair.

The test system of assay [8] is Seq 5 dsRNA (RNA, duplex) GCGCCCGC/GCGGGCGC
Description: thermal melting. The conditions noted are these: 100 mM KCl; 10 mM HEPES pH not given, 0.4 mM EDTA; 5 µM duplex; ligand 1:10 per base pair.

In assay [9] the test system is Seq 6 dsDNA (5'-CTTCGATAGTG) (DNA, duplex) CTTCGATAGTG/CACTATCGAAG
Nature of the assay: thermal melting. To be noted: 100 mM KCl; derived from two Tm; 10 mM HEPES, 0.4 mM EDTA; ligand 1:10 per base pair.

In assay [10] the test system is HTG DNA (human telomeric G-quadruplex), d[AG3(T2AG3)3] (DNA, G4) AGGGTTAGGGTTAGGGTTAGGG
Description: thermal melting. The conditions noted are these: 100 mM KCl; derived from two Tm; 10 mM HEPES, 0.4 mM EDTA; 5 µM DNA; ligand to HTG 2.2:1.

Assay [11] relates to Poly rA ⋅ Poly rU (RNA, polymer) A/U. Description: thermal melting. The conditions noted are these: 100 mM KCl, derived from two Tm, 10 mM HEPES, 0.4 mM EDTA, ligand 1:10 per base pair.
Assay [12] relates to Poly dA ⋅ Poly dT (DNA, polymer) A/T. Nature of the assay: thermal melting. The conditions noted are these: 100 mM KCl, derived from two Tm, 10 mM HEPES, 0.4 mM EDTA, ligand 1:10 per base pair.
Assay [13] has as its system Seq 1 (GGGGCCCC)2 (DNA, duplex) GGGGCCCC
Nature of the assay: fluorescence increase (ΔF), plate reader. The conditions noted are these: 50 mM NaCl; 10 mM sodium cacodylate, 0.5 mM EDTA, pH 6.0; 1 µM duplex, 1:1 ligand.

The test system of assay [14] is Seq 2 (CCCCGGGG)2 (DNA, duplex) CCCCGGGG
Description: fluorescence increase (ΔF), plate reader. The conditions noted are these: 50 mM NaCl; 10 mM sodium cacodylate, 0.5 mM EDTA, pH 6.0; 1 µM duplex, 1:1 ligand.

The test system of assay [15] is Seq 3 (GGGGCGGG)2 (DNA, duplex) GGGGCGGG/CCCGCCCC
Description: fluorescence increase (ΔF), plate reader. The conditions noted are these: 50 mM NaCl; 10 mM sodium cacodylate, 0.5 mM EDTA, pH 6.0; 1 µM duplex, 1:1 ligand.

Assay [16] has as its system Seq 4 (GCGGGGGC)2 (DNA, duplex) GCGGGGGC/GCCCCCGC
Description: fluorescence increase (ΔF), plate reader. The conditions noted are these: 50 mM NaCl; 10 mM sodium cacodylate, 0.5 mM EDTA, pH 6.0; 1 µM duplex, 1:1 ligand.

Each structure is given as a SMILES string.

As to `CN1C(=Cc2cc[n+](C)c3ccccc23)Sc2ccccc21`, the Tm was 58±1.1 °C in assay [1]; 54±1.6 °C in assay [2]; 52±1.0 °C in [3]; 73±0.3 °C in [4]; 61±1.2 °C in [5]. In assay [6], the binding entry is given as “yes”.
In the case of `CN1C(=Cc2cc[n+](CCCCC(=O)NC[C@H]3O[C@@H](O[C@@H]4[C@@H](O)[C@H](N)C[C@H](N)[C@H]4O[C@H]4O[C@H](CN)[C@@H](O)[C@H](O)[C@H]4N)[C@H](O)[C@@H]3O[C@H]3O[C@@H](CN)[C@@H](O)[C@H](O)[C@H]3N)c3ccccc23)Sc2ccccc21`, the Tm increase is 13.8 °C in assay [7] and 9.7 °C in [8]. Also, the ΔTm in [9] is 9 °C; in assay [10], 8 °C; in [11] it was 13 °C; in [12], 0 °C. For the same molecule, the binding result in assay [13], in assay [14], in [15] and in assay [16] was “yes” each time.
Consider `CN1C(=Cc2cc[n+](CCCCC(=O)NCCSC[C@H]3O[C@@H](O[C@@H]4[C@@H](O)[C@H](N)C[C@H](N)[C@H]4O[C@H]4O[C@H](CN)[C@@H](O)[C@H](O)[C@H]4N)[C@H](O)[C@@H]3O[C@H]3O[C@@H](CN)[C@@H](O)[C@H](O)[C@H]3N)c3ccccc23)Sc2ccccc21`, for which the Tm increase in assay [7] was 10.8 °C; in assay [8], 11 °C. Also, the ΔTm in [9] amounted to 13 °C; in assay [10], 10 °C; in [11], 21 °C; in [12], 1 °C. Besides, the binding result in assay [13], in assay [14], in assay [15] and in assay [16] was “yes” each time.
